Reference: ChEMBL document CHEMBL1201862, “PubChem BioAssay data set” (2004)
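Tested at 5 concentrations; 48 h exposure; 96-well plates; endpoints linearly interpolated, else capped at highest concentration. Abbreviation: GI50, concentration required for 50% inhibition of growth.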 Active and inactive are the calls of the source. Cut-off read from the data, not from the text of the source: active = GI50 up to about 1.1 µM and inactive = higher.

Key:
Assay in all cases: NCI anticancer screen, dose series, 48 h
UACC-257 = tested on: UACC-257
Hs-578T = tested on: Hs-578T
HCT-116 = tested on: HCT-116
A498 = tested on: A498
HOP-62 = tested on: HOP-62
MDA-N = tested on: MDA-N
DMS-114 = tested on: DMS-114
NCI-H522 = tested on: NCI-H522
HCT-15 = tested on: HCT-15
OVCAR-8 = tested on: OVCAR-8
SK-MEL-5 = tested on: SK-MEL-5
IGROV-1 = tested on: IGROV-1
MDA-MB-435 = tested on: MDA-MB-435
UO-31 = tested on: UO-31
A549 = tested on: A549
KM12 = tested on: KM12
TK-10 = tested on: TK-10
HCC 2998 = tested on: HCC 2998
HT-29 = tested on: HT-29
CCRF-CEM = tested on: CCRF-CEM

SMILES	GI50 (UACC-257)	GI50 (Hs-578T)	GI50 (HCT-116)	GI50 (A498)	GI50 (HOP-62)	GI50 (MDA-N)	GI50 (DMS-114)	GI50 (NCI-H522)	GI50 (HCT-15) [µM]	GI50 (OVCAR-8)	GI50 (SK-MEL-5)	GI50 (IGROV-1)	GI50 (MDA-MB-435)	GI50 (UO-31)	GI50 (A549)	GI50 (KM12)	GI50 (TK-10)	GI50 (HCC 2998)	GI50 (HT-29)	GI50 (CCRF-CEM)
CCN(CC)CC(O)CNc1ccc(NCC2CO2)c2c1C(=O)c1ccccc1C2=O (stereo unspecified)	1.48 µM (inactive)	1.14 µM (inactive)	0.0466 µM (active)	3.51 µM (inactive)	1.15 µM (inactive)	0.323 µM (active)	1.04 µM (active)	0.647 µM (active)	0.638	0.0661 µM (active)	0.447 µM (active)	1.63 µM (inactive)	0.211 µM (active)	0.594 µM (active)	1.03 µM (active)	0.294 µM (active)	2.29 µM (inactive)	1.19 µM (inactive)	0.553 µM (active)	–
CCN(CC)CCC(=O)N1CCc2c([nH]c3ccccc23)C1c1cccnc1 (stereo unspecified)	> 100 µM (inactive)	–	> 100 µM (inactive)	> 100 µM (inactive)	> 100 µM (inactive)	–	> 100 µM (inactive)	> 100 µM (inactive)	> 100	> 100 µM (inactive)	> 100 µM (inactive)	> 100 µM (inactive)	–	> 100 µM (inactive)	> 100 µM (inactive)	> 100 µM (inactive)	> 100 µM (inactive)	> 100 µM (inactive)	> 100 µM (inactive)	> 100 µM (inactive)
CC[C@]1(O)C(=O)OCc2c1cc1n(c2=O)Cc2cc3c(N)cccc3nc2-1	> 100 µM (inactive)	–	> 100 µM (inactive)	> 100 µM (inactive)	> 100 µM (inactive)	–	> 100 µM (inactive)	> 100 µM (inactive)	> 100	> 100 µM (inactive)	> 100 µM (inactive)	> 100 µM (inactive)	–	> 100 µM (inactive)	> 100 µM (inactive)	> 100 µM (inactive)	> 100 µM (inactive)	> 100 µM (inactive)	> 100 µM (inactive)	> 100 µM (inactive)
CC(C)c1ccc(O)c(Cc2cc(C(C)C)cc(Cc3cc(C(C)C)ccc3O)c2O)c1	1.71 µM (inactive)	–	1.78 µM (inactive)	1.46 µM (inactive)	1.69 µM (inactive)	–	1.61 µM (inactive)	1.57 µM (inactive)	1.7	2.09 µM (inactive)	1.62 µM (inactive)	2.46 µM (inactive)	–	1.68 µM (inactive)	1.9 µM (inactive)	1.97 µM (inactive)	1.93 µM (inactive)	1.78 µM (inactive)	2.25 µM (inactive)	3.39 µM (inactive)
O=C(C(=O)n1ncc(Cl)c(Cl)c1=O)n1ncc(Cl)c(Cl)c1=O	19.5 µM (inactive)	–	15.8 µM (inactive)	> 100 µM (inactive)	> 100 µM (inactive)	–	27.4 µM (inactive)	10.7 µM (inactive)	17.5	23.1 µM (inactive)	35.5 µM (inactive)	27.4 µM (inactive)	–	48.5 µM (inactive)	96.8 µM (inactive)	27.7 µM (inactive)	27.4 µM (inactive)	23.3 µM (inactive)	18.2 µM (inactive)	6.85 µM (inactive)
OC(C1CO1)C(O)C1CO1 (stereo unspecified)	81.7 µM (inactive)	80.9 µM (inactive)	45.8 µM (inactive)	74 µM (inactive)	7.26 µM (inactive)	29.9 µM (inactive)	35.6 µM (inactive)	46.9 µM (inactive)	55.3	55.2 µM (inactive)	29.1 µM (inactive)	68.1 µM (inactive)	101 µM (inactive)	48.5 µM (inactive)	–	87.9 µM (inactive)	86.3 µM (inactive)	44.6 µM (inactive)	63.5 µM (inactive)	3.71 µM (inactive)
COC(=O)c1ccccc1N(C(=O)c1ccccc1)c1ccccc1C	39.2 µM (inactive)	–	56.8 µM (inactive)	27.5 µM (inactive)	> 100 µM (inactive)	–	38.6 µM (inactive)	30.7 µM (inactive)	38.5	37.5 µM (inactive)	30.8 µM (inactive)	76.6 µM (inactive)	–	24.8 µM (inactive)	61.9 µM (inactive)	32.7 µM (inactive)	41.6 µM (inactive)	60 µM (inactive)	39.4 µM (inactive)	27.3 µM (inactive)
O=[N+]([O-])c1ccc(Cl)c(C2CC(c3cccc4ccccc34)=Nc3ccccc3S2)c1 (stereo unspecified)	31.6 µM (inactive)	–	6.68 µM (inactive)	> 45.2 µM (inactive)	55.7 µM (inactive)	–	20.2 µM (inactive)	14.3 µM (inactive)	15.2	12.9 µM (inactive)	16.7 µM (inactive)	48.5 µM (inactive)	–	18.4 µM (inactive)	28.7 µM (inactive)	20.2 µM (inactive)	41 µM (inactive)	69 µM (inactive)	17.3 µM (inactive)	3.43 µM (inactive)
COc1ccccc1/C=C1\CCC(CCN(C)C)(C2=CCCC2)C1=O (stereo unspecified)	17.2 µM (inactive)	–	12.7 µM (inactive)	16.6 µM (inactive)	17.3 µM (inactive)	–	17.3 µM (inactive)	14.1 µM (inactive)	19.2	17.5 µM (inactive)	13.8 µM (inactive)	14.1 µM (inactive)	–	17.6 µM (inactive)	23.9 µM (inactive)	18.2 µM (inactive)	18.5 µM (inactive)	18 µM (inactive)	15.3 µM (inactive)	16.5 µM (inactive)
O=C1N[C@H]2[C@H](O)[C@H](O)[C@@H](O)[C@H](O)[C@@H]2c2cc3c(c(O)c21)OCO3 [PANCRATISTATIN]	0.0429 µM (active)	–	0.0297 µM (active)	0.0583 µM (active)	0.0449 µM (active)	0.0372 µM (active)	0.0412 µM (active)	0.0326 µM (active)	0.045	0.0336 µM (active)	0.0272 µM (active)	0.0516 µM (active)	0.0372 µM (active)	0.0875 µM (active)	0.0893 µM (active)	0.0393 µM (active)	0.65 µM (active)	0.0403 µM (active)	0.0439 µM (active)	0.0324 µM (active)
